Results as given in PubChem BioAssay (NCI).
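Assay format: 96-well plates, 48-hour exposure. The concentration for 50% growth inhibition is given as GI50. TGI denotes the concentration required for complete inhibition of growth.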

How the values were obtained:
Assay in all cases: growth of human tumour cells (NCI), 48 h; in the data active = GI50 below about 0.43 µM; inactive = the rest
[1] = test system: SF-268 CNS
[2] = test system: SN12C renal
[3] = test system: MDA-MB-435
[4] = test system: HS 578T breast
[5] = test system: K-562 leukemia
[6] = test system: NCI-H226 lung
[7] = test system: OVCAR-4 ovarian
[8] = test system: SR leukemia
[9] = test system: UO-31 renal
[10] = test system: MCF7 breast
[11] = test system: T-47D breast
[12] = test system: U251 CNS
[13] = test system: SK-MEL-5 melanoma
[14] = test system: NCI/ADR-RES ovarian
[15] = test system: HT29 colon
[16] = test system: HOP-92 NSCLC
[17] = test system: A549 NSCLC
[18] = test system: IGROV1 ovarian
[19] = test system: NCI-H23 lung
[20] = test system: SF-295 CNS
[21] = test system: MOLT-4 leukemia
[22] = test system: TK-10 renal
[23] = test system: SNB-19 CNS
[24] = test system: CCRF-CEM leukemia
[25] = test system: SNB-75 CNS
[26] = test system: DU-145 prostate
[27] = test system: BT-549 breast
[28] = test system: SK-OV-3 ovarian
[29] = test system: CAKI-1 renal
[30] = test system: HOP-62 NSCLC
[31] = test system: OVCAR-3 ovarian
[32] = test system: SF-539 CNS
[33] = test system: RXF 393 renal
[34] = test system: NCI-H522 lung
[35] = test system: HCT-116 colon
[36] = test system: OVCAR-8 ovarian
[37] = test system: HL-60(TB) leukemia
[38] = test system: M14 melanoma
[39] = test system: A498 renal
[40] = test system: PC-3 prostate
[41] = test system: OVCAR-5 ovarian
[42] = test system: RPMI-8226 leukemia
[43] = test system: KM12 colon
[44] = test system: UACC-62 melanoma
[45] = test system: SK-MEL-28 melanoma
[46] = test system: 786-0 renal
[47] = test system: SK-MEL-2 melanoma
[48] = test system: COLO 205 colon
[49] = test system: MALME-3M melanoma
[50] = test system: EKVX NSCLC
[51] = test system: MDA-MB-231 breast
[52] = test system: NCI-H460 lung
[53] = test system: UACC-257 melanoma
[54] = test system: SW-620 colon
[55] = test system: HCC-2998 colon

O=C(NC1CCN(Cc2ccccc2)CC1)c1cc2nc(-c3ccc(Cl)s3)cc(C(F)(F)F)n2n1
> 100 µM: TGI [1] | TGI [2] | TGI [3] | TGI [4] | TGI [5] | TGI [6] | TGI [9] | TGI [10] | TGI [11] | TGI [12] | TGI [13] | TGI [14] | TGI [15] | TGI [16] | TGI [17] | TGI [18] | TGI [19] | TGI [20] | TGI [21] | TGI [22] | TGI [23] | TGI [24] | TGI [25] | TGI [26] | TGI [27] | TGI [28] | TGI [29] | TGI [30] | TGI [31] | TGI [32] | TGI [33] | TGI [34] | TGI [35]
inactive: GI50 [1] > 100 µM | GI50 [2] > 100 µM | GI50 [3] > 100 µM | GI50 [4] 10.9 µM | GI50 [5] 3.29 µM | GI50 [6] > 100 µM | GI50 [7] 12.7 µM | GI50 [8] 2.13 µM | GI50 [9] > 100 µM | GI50 [10] 8.98 µM | GI50 [11] 41.3 µM | GI50 [12] 5.98 µM | GI50 [13] 6.34 µM | GI50 [14] > 100 µM | GI50 [15] 3.14 µM | GI50 [16] 15.4 µM | GI50 [17] 79 µM | GI50 [18] > 100 µM | GI50 [19] > 100 µM | GI50 [20] > 100 µM | GI50 [21] > 100 µM | GI50 [22] 12.5 µM | GI50 [23] > 100 µM | GI50 [24] > 100 µM | GI50 [25] 10.5 µM | GI50 [26] > 100 µM | GI50 [27] > 100 µM | GI50 [28] 61.6 µM | GI50 [29] > 100 µM | GI50 [30] 27 µM | GI50 [31] 42.4 µM | GI50 [32] > 100 µM | GI50 [33] 3.23 µM | GI50 [34] 8.45 µM | GI50 [35] 4.84 µM
4.97 µM: TGI [8]
49.3 µM: TGI [7]

CSc1ccc2c3c(n(C[C@H](O)CO)c(=O)c2c1)-c1ccccc1C3=O
inactive: GI50 [36] 2.21 µM | GI50 [1] 4.64 µM | GI50 [37] 1.81 µM | GI50 [2] 1.94 µM | GI50 [3] 9.95 µM | GI50 [38] 4.09 µM | GI50 [4] 15.8 µM | GI50 [39] 2.57 µM | GI50 [5] 1.72 µM | GI50 [40] 3.42 µM | GI50 [41] 3.1 µM | GI50 [42] 1.62 µM | GI50 [6] 1.86 µM | GI50 [43] 2.26 µM | GI50 [44] 1.39 µM | GI50 [7] 6.38 µM | GI50 [9] 1.53 µM | GI50 [11] 2.85 µM | GI50 [12] 1.19 µM | GI50 [45] 4.46 µM | GI50 [46] 2.52 µM | GI50 [13] 1.75 µM | GI50 [47] 16.6 µM | GI50 [48] 2.94 µM | GI50 [14] 4.44 µM | GI50 [15] 1.33 µM | GI50 [49] 4.3 µM | GI50 [16] 12.9 µM | GI50 [17] 1.04 µM | GI50 [50] 3.89 µM | GI50 [51] 3.13 µM | GI50 [18] 3.77 µM | GI50 [19] 2.95 µM | GI50 [52] 0.476 µM | GI50 [53] 13.2 µM | GI50 [54] 0.978 µM | GI50 [20] 2.82 µM | GI50 [22] 4.76 µM | GI50 [24] 1.02 µM | GI50 [25] 12.5 µM | GI50 [26] 2.5 µM | GI50 [27] 2.77 µM | GI50 [28] 6.06 µM | GI50 [29] 1.11 µM | GI50 [55] 3.32 µM | GI50 [30] 1.83 µM | GI50 [31] 4.33 µM | GI50 [32] 2.36 µM | GI50 [33] 3.5 µM | GI50 [34] 2 µM | GI50 [35] 0.742 µM
18 µM: TGI [55]
10.6 µM: TGI [41]
22.8 µM: TGI [27]
25.5 µM: TGI [34]
45.8 µM: TGI [11]
58.3 µM: TGI [38]
5.31 µM: TGI [6]
2.35 µM: TGI [35]
> 100 µM: TGI [1] | TGI [3] | TGI [5] | TGI [40] | TGI [7] | TGI [25] | TGI [26]
4.86 µM: TGI [42]
48.8 µM: TGI [45]
13.6 µM: TGI [2]
21.1 µM: TGI [48]
49.9 µM: TGI [14]
7.49 µM: TGI [12]
12 µM: TGI [20]
11 µM: TGI [10]
5.74 µM: TGI [29]
22 µM: TGI [49]
12.7 µM: TGI [19]
23.3 µM: TGI [33]
4.64 µM: TGI [44]
41.9 µM: TGI [31]
42.6 µM: TGI [53]
60.8 µM: TGI [47]
37.5 µM: TGI [22]
15.1 µM: TGI [51]
43.6 µM: TGI [54]
6.38 µM: TGI [15]
8.94 µM: TGI [9]
93.9 µM: TGI [16]
20.9 µM: TGI [36]
10.3 µM: TGI [43]
11.7 µM: TGI [37]
active: GI50 [10] 0.423 µM | GI50 [21] 0.368 µM
78.8 µM: TGI [4]
3.76 µM: TGI [13]
34.2 µM: TGI [28]
7.27 µM: TGI [30]
9.22 µM: TGI [46]
88 µM: TGI [50]
12.6 µM: TGI [39]
85.3 µM: TGI [18]
2.33 µM: TGI [52] | TGI [21]
7.1 µM: TGI [24]
3.47 µM: TGI [17]
7.37 µM: TGI [32]
